Assay results published in US20260265724A1, “BIOSENSOR COMPRISING A MODIFIED BETA-LACTAMASE AND USES THEREOF” (priority 2022, published 2026).

Tests used:
F70Cf [1] = biological target: T1, F70Cf (Klebsiella pneumoniae, UniProt C7C422, F70C); experiment: Time-course fluorescence measurements of F70Cf on a spectrofluorometer; format: binding; details: for Fluorescence signal of F70Cf with β-lactam antibiotic as a function of time: spectrofluorometer, mole ratios 1:150 and 1:1500, FIGS. 5A-5B; for Fluorescence signal of F70Cf with inhibitor: F70Cf 0.13 μM, inhibitor 0, 2, 20 and 200 μM, excitation 494 nm, emission 518 nm, L-arginine 200 μM (1:1500) as control, FIGS. 7A-7E; for Initial phase of fluorescence increase (speed of binding to F70Cf): spectrophotometer, FIGS. 7A-7D
T1 construct: made in house; host or cells: E. coli BL21 (DE3), pET-3k vector; labelled with F5M after purification
Description: To investigate fluorescence response of the proposed NDM-1 mutant to two existing β-lactam antibiotics, fluorescein-labelled NDM-1 mutant, F70Cf, was mixed with cefotaxime and cephalothin in two concentrations (in mole ratios of 1:150 and 1:1500) and compared the fluorescence intensity level of these two samples with a blank (i.e., no cefotaxime nor cephalothin, or mole ratio=1:0) under a spectrofluorometer. […] It has been shown in other previous studies (Chan et al., 2008; Tsang et al., 2011) that binding of β-lactam antibiotics to the enzyme's active site induces the […] to depart from the active site, so that the fluorescein label (F5M) becomes well exposed to external aqueous environment and/or stays away from amino acid quenchers in the active site. When the […] is hydrolyzed to the acid product, the fluorescein label (F5M) returns to the active site, thus restoring its weak fluorescence signal.
Time-course fluorescence measurements were recorded at 518 nm by exciting the F70Cf (final concentration: 0.13 μM) at 494 nm with different concentrations of the inhibitors (0, 2, 20 and 200 μM, respectively) in labelling buffer (50 μM ZnCl2, 20 mM Tris-HCl buffer, pH 7.0) in a quartz cuvette. Triplicate measurements were performed for each inhibitor. L-arginine in 200 μM was also used as a control.

F70Cf [2] = biological target: T1, F70Cf; experiment: Fluorescence microplate reader measurements of F70Cf; format: binding; details: for Fluorescence signal of F70Cf as a function of time, microplate reader: mole ratio of F70Cf to test substance 1:1500, FIGS. 6A-6B, 8E; for Initial increase in fluorescence signal, microplate reader: mole ratio 1:1500, FIGS. 8A-8D
Experimental: To investigate compatibility of F70Cf with a high-throughput screening platform, a F70Cf was initially added to a fluorescence microplate reader followed by injection of 1:1500 cefotaxime and cephalothin, respectively.
For high-throughput inhibitor screening experiments, the fluorescence signal changes were recorded by adding 10 μL of each inhibitor (final concentration: 200 μM) automatically into 250 μL of F70Cf (final concentration: 0.13 μM) in a 96-well plate containing 50 μM ZnCl2, 20 mM, pH7.0, Tris-HCl buffer, using Thermo Scientific Varioskan LUX Multimode Microplate Reader (Thermo Fisher Scientific) (n=3). The excitation and emission wavelengths were 494 and 520 nm, respectively. The injection of each inhibitor started at 0.5 min.

NDM-1 = NDM-1 (Klebsiella pneumoniae, UniProt C7C422); details: previous studies (Brem et al., 2016; Klingler et al., 2015; Ma et al., 2019); cited from earlier work
F70Cf [3] = biological target: T1, F70Cf; experiment: Native ESI-MS binding study of F70Cf with inhibitors; details: 20 mM ammonium acetate with 50 μM ZnCl2, FIGS. 9A-9F
Experimental: To further verify that F70Cf can bind to these non-β-lactam inhibitors non-covalently, native ESI-MS measurements were performed. […] Prior to ESI-MS analysis, protein was buffer-exchanged into 20 mM ammonium acetate with 50 μM ZnCl2 buffer with ultra-filtration devices. Equal volumes of F70Cf and inhibitors were mixed in a molar ratio of 1:20 for 10 minutes, and the mixture was directly loaded into metal-coated glass capillaries, which were subsequently mounted onto the nano-ESI source for MS analysis […].

F70C (NDM-1 mutant) = biological target: T2, F70C (NDM-1 mutant) (Klebsiella pneumoniae, UniProt C7C422, F70C); experiment: Specific activity against antibiotics by ultraviolet-visible spectroscopy (antibiotic hydrolysis); format: biochemical; details: enzyme 0.001 mg/ml, 100 μM antibiotic, 50 μM ZnCl2, 20 mM Tris-HCl buffer, pH 7.0
T2 construct: made in house; host or cells: E. coli BL21 (DE3), pET-3k vector
Experimental: (§1) Specific activity (U/mg) of wild-type NDM-1, F70C and F70Cf against different antibiotics were measured by ultraviolet-visible spectroscopy. Enzymes (final concentration: 0.001 mg/ml) were incubated with 100 μM of different antibiotics: cefotaxime, ceftazidime, penicillin G, ampicillin and meropenem, in 500 μL buffer (50 μM ZnCl2, 20 mM Tris-HCl buffer, pH 7.0). Antibiotic hydrolysis was monitored at 264 nm (cefotaxime), 260 nm (ceftazidime), 240 nm (penicillin G), 235 nm (ampicillin) and 297 nm (meropenem). The molar extinction coefficients were used as follows: cefotaxime=−7250 M^−1 cm^−1, ceftazidime=−8660 M^−1 cm^−1, penicillin G=−560 M^−1 cm^−1, ampicillin=900 M^−1 cm^−1 and meropenem −10940 M^−1 cm^−1.

[4] = biological target: T3, F70Cf (fluorescein-labelled NDM-1 mutant) (Klebsiella pneumoniae, UniProt C7C422, F70C); experiment: as above; format: biochemical; details: enzyme 0.001 mg/ml, 100 μM antibiotic, 50 μM ZnCl2, 20 mM Tris-HCl buffer, pH 7.0
T3 construct: made in house; host or cells: E. coli BL21 (DE3), pET-3k vector; labelled with F5M after purification
Experimental: as §1

Wild-type NDM-1 = biological target: T4, Wild-type NDM-1 (Klebsiella pneumoniae, UniProt C7C422); experiment: as above; format: biochemical; details: enzyme 0.001 mg/ml, 100 μM antibiotic, 50 μM ZnCl2, 20 mM Tris-HCl buffer, pH 7.0
T4 construct: made in house; host or cells: E. coli BL21 (DE3), pET-3k vector
Experimental: as §1

T3 sequence (C7C422 29-270 F70C): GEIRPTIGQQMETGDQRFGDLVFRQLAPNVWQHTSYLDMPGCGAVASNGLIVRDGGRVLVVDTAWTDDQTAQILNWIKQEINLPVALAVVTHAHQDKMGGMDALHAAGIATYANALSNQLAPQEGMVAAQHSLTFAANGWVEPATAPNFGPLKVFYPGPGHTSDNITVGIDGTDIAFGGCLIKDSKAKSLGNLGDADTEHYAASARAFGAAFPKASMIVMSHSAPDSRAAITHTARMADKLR
T1 sequence (C7C422 29-270 F70C): as above
T2 sequence (C7C422 29-270 F70C): as above
T4 sequence (C7C422 29-270 limits assumed): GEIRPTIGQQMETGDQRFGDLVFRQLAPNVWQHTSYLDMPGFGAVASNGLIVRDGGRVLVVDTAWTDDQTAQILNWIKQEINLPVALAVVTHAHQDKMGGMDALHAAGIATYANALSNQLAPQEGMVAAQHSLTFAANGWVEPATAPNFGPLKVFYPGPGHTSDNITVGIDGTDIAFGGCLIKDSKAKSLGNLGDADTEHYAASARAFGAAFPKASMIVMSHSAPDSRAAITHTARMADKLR

| Molecule | Fluorescence signal of F70Cf with β-lactam antibiotic as a function of time (F70Cf [1]) | Fluorescence signal of F70Cf as a function of time, microplate reader (F70Cf [2]) | IC50 (NDM-1) [µM] | Fluorescence signal of F70Cf with inhibitor (F70Cf [1]) | Initial phase of fluorescence increase (speed of binding to F70Cf) (F70Cf [1]) | Formation of non-covalent complex with F70Cf (F70Cf [3]) | Initial increase in fluorescence signal, microplate reader (F70Cf [2]) | Specific activity, F70C (F70C (NDM-1 mutant)) [U/mg] | Specific activity, F70Cf [4] [U/mg] | Specific activity, Wild-type NDM-1 (Wild-type NDM-1) [U/mg] |
| --- | --- | --- | --- | --- | --- | --- | --- | --- | --- | --- |
| CC(=O)OCC1=C(C(=O)O)N2C(=O)[C@@H](NC(=O)Cc3cccs3)[C@H]2SC1 [cephalothin] | fluorescence signals increased and then decreased gradually as a function of time | stronger fluorescence signals and then declining fluorescence signals as a function of time | – | – | – | – | – | – | – | – |
| O=C(O)CNC(=O)C(CS)Cc1ccccc1 (racemic) [DL-thiorphan] | – | – | 1.8 | increased with an increasing dose of the inhibitors | bind much faster to F70Cf as compared L-captopril | can form non-covalent complexes with F70Cf in a significant population | much faster than that of L-captopril | – | – | – |
| CC1(C)S[C@@H]2[C@H](NC(=O)[C@H](N)c3ccccc3)C(=O)N2[C@H]1C(=O)O [Ampicillin, ampicillin] | – | – | – | – | – | – | – | 13880 ± 1406 | 779 ± 114 | 16349 ± 880 |
| peptide with an amino acid sequence of GSKKPVPIIYCNRRTGKCQRM (SEQ ID NO: 9), from GL Biochem [thanatin] | – | – | 3.21 | increased with an increasing dose of the inhibitors | bind much faster to F70Cf as compared L-captopril | can form non-covalent complexes with F70Cf in a significant population | much faster than that of L-captopril | – | – | – |
| N=C(N)NCCC[C@H](N)C(=O)O [L-arginine] | – | no fluorescence signals | – | no fluorescence signal | – | virtually cannot form a F70Cf-L-arginine complex in a significant population | – | – | – | – |
| CO/N=C(\C(=O)N[C@@H]1C(=O)N2C(C(=O)O)=C(COC(C)=O)CS[C@H]12)c1csc(N)n1 [Cefotaxime, cefotaxime] | fluorescence signals increased and then decreased gradually as a function of time | stronger fluorescence signals and then declining fluorescence signals as a function of time | – | – | – | – | – | 8195 ± 1960 | 1529 ± 121 | 8166 ± 937 |
| CC(C)(O/N=C(\C(=O)N[C@@H]1C(=O)N2C(C(=O)[O-])=C(C[n+]3ccccc3)CS[C@H]12)c1csc(N)n1)C(=O)O [Ceftazidime, ceftazidime] | – | – | – | – | – | – | – | 3835 ± 216 | 308 ± 33 | 3446 ± 150 |
| C[C@@H](O)[C@H]1C(=O)N2C(C(=O)O)=C(S[C@@H]3CN[C@H](C(=O)N(C)C)C3)[C@H](C)[C@H]12 [Meropenem, meropenem] | – | – | – | – | – | – | – | 5863 ± 291 | 506 ± 30 | 6834 ± 1582 |
| CC1(C)S[C@@H]2[C@H](NC(=O)Cc3ccccc3)C(=O)N2[C@H]1C(=O)O [Penicillin G, penicillin G] | – | – | – | – | – | – | – | 60854 ± 1436 | 10720 ± 330 | 54764 ± 3013 |
